Test results taken from patent US11266707B2, “Nutraceuticals for the prevention, inhibition, and treatment of SARS-CoV-2 and associated COVID-19” (priority 2020, dated 2022).
Like-named read-outs stand apart in the source and are kept apart here.

Tests used:
[1] = system: sepsis induction with live Escherichia coli; settings: cited from earlier work; for concentration of IL-1a: controls 1187.0±278.64, P<0.05
[2] = system: lipopolysaccharide-induced inflammatory reactions; settings: cited from earlier work
[3] = animal studies; cited from earlier work
[4] = system: NK cell; assay: Pterostilbene given as nanostilbene to cancer patients: NK cell activity and interferon gamma; type: in vivo, human; settings: administered in the form of nanostilbene in cancer patients
[5] = system: interleukin-I, interleukin-6, interleukin-8, TNF-alpha; settings: cited from earlier work
[6] = system: human umbilical vein VECs (HUVECs); settings: cited from earlier work
[7] = system: endothelium of atherosclerotic plaque; settings: apoE(−/−) mice, injection; cited from earlier work
[8] = system: LPS-challenged macrophages; settings: pre-incubated 6 h with 0 to 50 μM, then LPS 24 h; cited from earlier work
[9] = system: primary peritoneal macrophages; settings: cited from earlier work
[10] = system: LPS-induced ARDS; settings: cited from earlier work
[11] = system: LPS-induced ARDS; settings: cited from earlier work; remark: listed apart in the source
[12] = system: lipopolysaccharide-activated macrophages; settings: cited from earlier work
[13] = 10 mg/kg intraperitoneally; 72 h after CL2P; cited from earlier work
[14] = system: macrophage foam cells; settings: pretreatment; cited from earlier work
[15] = 10 mg/kg intraperitoneally at 1 and 6 h after CL2P and every 12 h; 18 h; cited from earlier work
[16] = cited from earlier work
[17] = cited from earlier work; remark: listed apart in the source
[18] = 10 mg/kg intravenously then 10 mg/kg/h infusion; cited from earlier work
[19] = 50 mg/kg, LPS 5 mg/kg 3 days later
[20] = lung, serum, and bronchoalveolar lavage fluid

CC1=CC(=O)C(C(C)C)=CC1=O [thymoquinone]
concentration of IL-1a ([1]; 0.75 mg/kg dose): 310.8 ± 70.93 pg/mL
IL-10 levels ([1]; 0.75 mg/kg, controls 5505.2±333.96, P<0.01): 2885.0 ± 553.98 pg/mL
concentration of IL-1a ([1]; 1 mg/kg group): 428.3 ± 71.32 pg/mL
levels of IL-2 ([1]; P value 0.0851): relatively lower
levels of TNF-a ([1]; P value 0.1817): relatively lower
reduced mortality ([1]; mice, sepsis models): 80-90%
renal and hepatic biomarker profiles ([1]; mice, sepsis models): improved
lipopolysaccharide-induced inflammatory reactions [2]: suppressed effectively
concentration of nitric oxide ([2]; marker of inflammation): reduced significantly

trans-3,5-dimethoxy-4-hydroxystilbene [pterostilbene]
bioavailability [3]: 80%
NK cell activity [4]: increased
interferon gamma production [4]: increased
inflammatory cytokines associated with ARDS (interleukin-I, interleukin-6, interleukin-8, TNF-alpha) [5]: inhibit inflammatory cytokines
oxLDL-induced cell shrinkage, chromatin condensation, nuclear fragmentation, and cell apoptosis ([6]; HUVECs, oxLDL 200 μg/ml): protected against such injuries
expression of lectin-like oxLDL receptor-I (LOX-1) ([6]; in vitro and in vivo): inhibited
number of TUNEL-positive cells in the endothelium of atherosclerotic plaque [7]: strongly decreased

C[S+]([O-])CCCCN=C=S (stereo not shown) [sulforaphane, 1-isothiocyanato-4-(methylsulfinyl)-butane]
expression of NO and cytokines [8]: able to prevent
HO-1 expression ([9]; LPS-stimulated Nrf2 (+/+) primary peritoneal macrophages): significantly augmented
LPS-stimulated mRNA expression, protein expression and production of TNF-alpha, IL-1beta, COX-2 and iNOS ([9]; Nrf2 (+/+) primary peritoneal macrophages, pretreatment): potently inhibited
anti-inflammatory effect ([9]; Nrf2 (−/−) primary peritoneal macrophages): attenuated
serum levels of interleukin-6 (IL-6) ([10]; 50 mg/kg, ELISA): significantly decreased
serum levels of tumor necrosis factor-a (TNF-a) ([10]; 50 mg/kg, ELISA): significantly decreased
lactate dehydrogenase (LDH) activity [10, 19]: significantly decreased
wet-to-dry ratio of the lungs [10, 19]: significantly decreased
inducible nitric oxide synthase (iNOS) activity ([10]; 50 mg/kg): significantly inhibited
prostaglandin E2 (PGE2) production ([10]; 50 mg/kg): significantly inhibited
Nrf2/antioxidant response element (ARE) pathway ([10]; pre-treatment): activated
cyclooxygenase-2 (COX-2) protein expression ([10]; western blot): significantly inhibited
matrix metalloproteinase-9 (MMP-9) protein expression ([10]; western blot): significantly inhibited

Epigallocatechin-3-Gallate [EGCG]
LPS-induced ARDS ([11]; 10 mg/kg ip 1 h before LPS 10 mg/kg ip): attenuated
changes in blood gases ([11]; 10 mg/kg ip): decreased
histological lesions ([11]; 10 mg/kg ip): reduced
myeloperoxidase (MPO) activity ([11]; 10 mg/kg ip): reduced
expression of IKB-a ([11]; lung tissue): increased
expression of TLR-4, MyD88, TRIP, and p-p65 ([11]; lung tissue): alleviated
expression of p65 ([11]; lung tissue): no influence
expression of IL-6 [11, 20]: significantly decreased
expression of interleukin (IL)-1′ [11, 20]: significantly decreased
expression of tumor necrosis factor (TNF)-a [11, 20]: significantly decreased
NO production ([12]; cells cotreated with EGCG and LPS): Inhibition
disappearance of inhibitor kappaB from cytosolic fraction [12]: blocked
activation of nuclear factor-kappaB ([12]; electrophoretic mobility shift assay): blocked
survival [13]: significantly improved
TNF-a-induced downregulation of ABCA1 and decrease in cholesterol efflux to apoA1 [14]: attenuated
hypotension (mean arterial blood pressure) [15]: significantly improved
lethal sepsis ([16]; first dose given 24 hours after cecal ligation and puncture): rescued
lethal endotoxemia ([16]; intraperitoneal administration): protected
systemic accumulation of HMGB1, IL-6 and KC ([16]; mouse, in vivo): attenuation
colonic tissue erosion ([17]; 50 and 100 mg/kg/day): attenuation
HIF-1a and STAT3 protein expression in the colon ([17]; mouse, in vivo): decreasing
plasma levels of IL-10 ([17]; mouse, in vivo): increasing
plasma levels of TGF-1 ([17]; mouse, in vivo): increasing
release of IL-6 ([17]; plasma): reduce
release of IL-17 ([17]; plasma): reduce
myeloperoxidase activity [18]: reduced
myocardial damage [18]: reduced
plasma IL-6 levels [18]: decreased
plasma creatine phosphokinase levels [18]: decreased
